Experiments:
[1] = molecular target: Dual specificity tyrosine-phosphorylation-regulated kinase 1A (Rattus norvegicus) (UniProt Q63470); experiment: Inhibition of recombinant rat DYRK1A kinase domain (1 to 499 residues) expressed in bacteria assessed as enzyme residual activity using KKISGRLSPIMTEQ as substrate at 1 uM incubated for 30 mins in presence of ATP by ADP-Glo kinase assay
[2] = molecular target: Dual specificity protein kinase CLK1 (Mus musculus) (UniProt P22518); experiment: Inhibition of recombinant mouse CLK1 expressed in bacteria assessed as enzyme residual activity using GRSRSRSRSRSR as substrate at 1 uM incubated for 30 mins in presence of ATP by ADP-Glo kinase assay
Dual specificity protein kinase CLK1 (Mus musculus), sequence (P22518 whole entry, looked up, canonical isoform): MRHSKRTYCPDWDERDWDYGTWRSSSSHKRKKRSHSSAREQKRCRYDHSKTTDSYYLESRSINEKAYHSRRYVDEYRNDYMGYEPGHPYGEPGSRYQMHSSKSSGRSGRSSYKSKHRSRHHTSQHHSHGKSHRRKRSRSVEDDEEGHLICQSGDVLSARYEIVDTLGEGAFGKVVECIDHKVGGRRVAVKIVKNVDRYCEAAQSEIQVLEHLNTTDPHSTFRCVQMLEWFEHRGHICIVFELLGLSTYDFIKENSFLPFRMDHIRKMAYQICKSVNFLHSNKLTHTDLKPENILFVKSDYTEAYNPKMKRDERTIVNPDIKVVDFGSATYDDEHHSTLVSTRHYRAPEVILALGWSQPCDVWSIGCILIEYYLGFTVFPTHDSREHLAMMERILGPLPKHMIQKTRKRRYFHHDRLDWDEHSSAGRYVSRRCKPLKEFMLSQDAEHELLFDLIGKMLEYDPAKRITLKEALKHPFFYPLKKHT

[3] = molecular target: Casein kinase I isoform epsilon (Homo sapiens) (UniProt P49674); experiment: Inhibition of human recombinant CK1 epsilon expressed in baculovirus-infected Sf9 cells assessed as enzyme residual activity using RRKHAAIGSpAYSITA as substrate at 1 uM incubated for 30 mins in presence of ATP by ADP-Glo kinase assay
Casein kinase I isoform epsilon (Homo sapiens), sequence (P49674 whole entry, looked up, canonical isoform): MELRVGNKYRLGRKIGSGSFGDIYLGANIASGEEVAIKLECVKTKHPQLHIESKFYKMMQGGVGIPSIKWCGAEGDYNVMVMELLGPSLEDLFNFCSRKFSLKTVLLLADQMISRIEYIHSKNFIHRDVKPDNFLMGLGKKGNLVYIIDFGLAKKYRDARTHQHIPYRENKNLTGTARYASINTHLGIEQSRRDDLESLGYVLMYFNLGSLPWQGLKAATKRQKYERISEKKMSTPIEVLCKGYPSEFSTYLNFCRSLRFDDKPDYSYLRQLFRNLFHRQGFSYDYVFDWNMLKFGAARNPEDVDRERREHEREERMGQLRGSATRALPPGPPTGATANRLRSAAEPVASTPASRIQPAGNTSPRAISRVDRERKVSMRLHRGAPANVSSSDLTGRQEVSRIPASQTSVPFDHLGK

[4] = molecular target: Glycogen synthase kinase-3 beta (Homo sapiens) (UniProt P49841); experiment: Inhibition of human recombinant GSK-3 beta expressed in baculovirus-infected Sf9 cells assessed as enzyme residual activity using YRRAAVPPSPSLSRHSSPHQSpEDEEE as substrate at 1 uM incubated for 30 mins in presence of ATP by ADP-Glo kinase assay
Glycogen synthase kinase-3 beta (Homo sapiens), sequence (P49841 whole entry, looked up, the tested form may be a part): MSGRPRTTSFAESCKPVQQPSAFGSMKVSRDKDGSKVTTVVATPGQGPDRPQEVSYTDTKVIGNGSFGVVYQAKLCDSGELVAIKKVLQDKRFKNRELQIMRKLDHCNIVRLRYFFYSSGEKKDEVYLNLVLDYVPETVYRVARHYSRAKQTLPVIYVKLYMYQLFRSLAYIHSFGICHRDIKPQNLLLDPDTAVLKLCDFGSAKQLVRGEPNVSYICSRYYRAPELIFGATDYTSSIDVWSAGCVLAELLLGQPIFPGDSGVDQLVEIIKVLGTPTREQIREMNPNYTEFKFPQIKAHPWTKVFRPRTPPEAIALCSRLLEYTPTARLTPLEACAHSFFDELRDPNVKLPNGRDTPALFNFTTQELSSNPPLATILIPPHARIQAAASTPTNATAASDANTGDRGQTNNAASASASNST

[5] = molecular target: T1, Serine/threonine-protein kinase pim-1 (Homo sapiens, UniProt P11309); experiment: Inhibition of human recombinant PIM-1 expressed in bacteria assessed as enzyme residual activity using histone H1 as substrate at 1 uM incubated for 30 mins in presence of ATP by ADP-Glo kinase assay
T1 sequence (P11309 whole entry, looked up): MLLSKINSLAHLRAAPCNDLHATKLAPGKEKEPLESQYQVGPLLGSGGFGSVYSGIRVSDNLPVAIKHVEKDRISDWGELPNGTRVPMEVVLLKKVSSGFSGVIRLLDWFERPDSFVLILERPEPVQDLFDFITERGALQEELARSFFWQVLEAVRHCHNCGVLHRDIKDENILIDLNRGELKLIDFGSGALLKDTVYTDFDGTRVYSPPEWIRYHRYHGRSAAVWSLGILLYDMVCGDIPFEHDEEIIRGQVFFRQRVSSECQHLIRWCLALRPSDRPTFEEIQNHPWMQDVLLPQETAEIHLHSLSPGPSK

[6] = molecular target: T2, Cyclin-dependent kinase 5/CDK5 activator 1 (Homo sapiens) (UniProt Q00535+Q15078); experiment: Inhibition of human recombinant CDK5/p25 expressed in bacteria assessed as enzyme residual activity using histone H1 as substrate at 10 uM incubated for 30 mins in presence of ATP by ADP-Glo kinase assay
T2 sequence (Q00535 whole entry): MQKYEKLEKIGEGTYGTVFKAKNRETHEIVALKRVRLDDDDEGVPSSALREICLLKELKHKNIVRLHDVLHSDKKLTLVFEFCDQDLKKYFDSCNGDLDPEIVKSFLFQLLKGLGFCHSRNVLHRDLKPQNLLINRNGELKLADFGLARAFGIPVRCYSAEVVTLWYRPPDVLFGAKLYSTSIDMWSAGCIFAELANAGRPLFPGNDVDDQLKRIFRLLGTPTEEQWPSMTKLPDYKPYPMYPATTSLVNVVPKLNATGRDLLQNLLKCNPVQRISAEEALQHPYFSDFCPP
T2 sequence (Q15078 99-307 partner limits assumed): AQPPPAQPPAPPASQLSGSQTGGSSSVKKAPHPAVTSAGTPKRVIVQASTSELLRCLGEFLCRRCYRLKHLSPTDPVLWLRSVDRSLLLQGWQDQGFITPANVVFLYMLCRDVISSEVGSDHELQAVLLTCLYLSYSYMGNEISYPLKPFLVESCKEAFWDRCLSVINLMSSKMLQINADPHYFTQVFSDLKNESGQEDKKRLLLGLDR

[7] = molecular target: Glycogen synthase kinase-3 beta (Homo sapiens) (UniProt P49841); experiment: Inhibition of human recombinant GSK-3 beta expressed in baculovirus-infected Sf9 cells assessed as enzyme residual activity using YRRAAVPPSPSLSRHSSPHQSpEDEEE as substrate at 10 uM incubated for 30 mins in presence of ATP by ADP-Glo kinase assay
[8] = molecular target: Dual specificity tyrosine-phosphorylation-regulated kinase 1A (Rattus norvegicus) (UniProt Q63470); experiment: Inhibition of recombinant rat DYRK1A kinase domain (1 to 499 residues) expressed in bacteria assessed as enzyme residual activity using KKISGRLSPIMTEQ as substrate at 10 uM incubated for 30 mins in presence of ATP by ADP-Glo kinase assay
[9] = molecular target: T1, Serine/threonine-protein kinase pim-1; experiment: Inhibition of human recombinant PIM-1 expressed in bacteria assessed as enzyme residual activity using histone H1 as substrate at 10 uM incubated for 30 mins in presence of ATP by ADP-Glo kinase assay
[10] = molecular target: Casein kinase I isoform epsilon (Homo sapiens) (UniProt P49674); experiment: Inhibition of human recombinant CK1 epsilon expressed in baculovirus-infected Sf9 cells assessed as enzyme residual activity using RRKHAAIGSpAYSITA as substrate at 10 uM incubated for 30 mins in presence of ATP by ADP-Glo kinase assay
[11] = molecular target: T3, CDK9/cyclin T1 (Homo sapiens) (UniProt O60563+P50750); experiment: Inhibition of human recombinant CDK9/cyclin T expressed in baculovirus-infected Sf9 cells assessed as enzyme residual activity using YSPTSPSYSPTSPSYSPTSPSKKKK as substrate at 1 uM incubated for 30 mins in presence of ATP by ADP-Glo kinase assay
[12] = molecular target: T3, CDK9/cyclin T1 (Homo sapiens); experiment: Inhibition of human recombinant CDK9/cyclin T expressed in baculovirus-infected Sf9 cells assessed as enzyme residual activity using YSPTSPSYSPTSPSYSPTSPSKKKK as substrate at 10 uM incubated for 30 mins in presence of ATP by ADP-Glo kinase assay
[13] = molecular target: Dual specificity protein kinase CLK1 (Mus musculus) (UniProt P22518); experiment: Inhibition of recombinant mouse CLK1 expressed in bacteria assessed as enzyme residual activity using GRSRSRSRSRSR as substrate at 10 uM incubated for 30 mins in presence of ATP by ADP-Glo kinase assay
[14] = molecular target: T2, Cyclin-dependent kinase 5/CDK5 activator 1 (Homo sapiens); experiment: Inhibition of human recombinant CDK5/p25 expressed in bacteria assessed as enzyme residual activity using histone H1 as substrate at 1 uM incubated for 30 mins in presence of ATP by ADP-Glo kinase assay
[15] = molecular target: T4, Serine/threonine-protein kinase haspin (Homo sapiens, UniProt Q8TF76); experiment: Inhibition of recombinant human Haspin kinase domain (470 to 798 residues) expressed in bacteria using histone H3 (1 to 21) peptide as substrate incubated for 30 mins in presence of ATP by ADP-Glo kinase assay
T4 sequence (Q8TF76 whole entry): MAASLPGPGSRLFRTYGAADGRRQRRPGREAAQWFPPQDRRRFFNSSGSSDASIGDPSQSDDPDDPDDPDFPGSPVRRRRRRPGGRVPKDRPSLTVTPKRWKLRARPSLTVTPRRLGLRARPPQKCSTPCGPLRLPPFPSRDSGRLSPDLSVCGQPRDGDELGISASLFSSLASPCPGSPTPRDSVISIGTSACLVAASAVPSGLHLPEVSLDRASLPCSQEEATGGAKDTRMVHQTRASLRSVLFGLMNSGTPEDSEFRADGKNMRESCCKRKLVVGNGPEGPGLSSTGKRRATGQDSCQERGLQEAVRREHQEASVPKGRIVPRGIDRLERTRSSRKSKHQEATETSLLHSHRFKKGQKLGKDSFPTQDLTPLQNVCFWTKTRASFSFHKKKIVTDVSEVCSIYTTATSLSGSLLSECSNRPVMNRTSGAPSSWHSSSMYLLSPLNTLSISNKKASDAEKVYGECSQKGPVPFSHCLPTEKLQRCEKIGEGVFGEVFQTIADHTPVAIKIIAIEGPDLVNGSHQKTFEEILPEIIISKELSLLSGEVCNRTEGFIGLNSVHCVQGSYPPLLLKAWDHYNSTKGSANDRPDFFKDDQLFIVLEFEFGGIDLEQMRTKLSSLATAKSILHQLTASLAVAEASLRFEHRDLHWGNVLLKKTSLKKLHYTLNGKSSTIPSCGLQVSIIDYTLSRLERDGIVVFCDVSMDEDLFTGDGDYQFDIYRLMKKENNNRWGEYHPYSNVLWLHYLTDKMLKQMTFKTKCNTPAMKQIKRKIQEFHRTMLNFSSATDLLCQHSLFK

| SMILES | Activity [1] | Activity [2] | Activity [3] | Activity [4] | Activity [5] | Activity [6] | Activity [7] | Activity [8] | Activity [9] | Activity [10] | Activity [11] | Activity [12] | Activity [13] | Activity [14] | IC50 [15] |
| --- | --- | --- | --- | --- | --- | --- | --- | --- | --- | --- | --- | --- | --- | --- | --- |
| CCN(CC)Cc1c[nH]c2cc3cnccc3cc12 | 89% | 89% | 98% | 79% | 65% | 100% | 77% | 76% | 47% | 100% | 86% | 51% | 84% |  |  |
| CN(C)Cc1c[nH]c2cc3cnccc3cc12 | 74% | 91% | 100% | 78% | 66% | 97% | 66% | 67% | 67% | 99% | 57% | 18% | 62% | 100% |  |
| Nc1cc2cc3ccncc3cc2[nH]1 | 100% | 73% | 79% | 69% | 100% | 99% | 64% | 39% | 88% | 52% | 74% | 27% | 20% | 89% |  |
| c1cc2cc3cc[nH]c3cc2cn1 | 99% | 87% | 97% | 100% | 90% | 98% | 100% | 37% | 45% | 90% | 76% | 34% | 67% | 100% |  |
| c1cc2cc3c(-c4cncnc4)c[nH]c3cc2cn1 | 51% | 54% | 81% | 68% | 63% | 72% | 59% | 20% | 33% | 43% | 79% | 43% | 14% | 100% | 0.249 µM |
| NCc1c[nH]c2cc3cnccc3cc12 | 77% | 99% | 99% | 94% | 97% | 94% | 80% | 62% | 84% | 96% | 93% | 58% | 86% | 100% |  |
| OCc1c[nH]c2cc3cnccc3cc12 | 77% | 96% | 100% | 84% | 100% | 94% | 81% | 62% | 100% | 98% | 81% | 55% | 55% |  | 0.819 µM |
| Cn1ccc2cc3ccncc3cc21 | 67% | 92% | 92% | 100% | 67% | 38% | 83% | 29% | 35% | 85% | 89% | 60% | 58% | 53% | ~1 µM |
| CCNCc1c[nH]c2cc3cnccc3cc12 | 80% | 94% | 100% | 76% | 76% | 89% | 80% | 63% | 74% | 100% | 74% | 37% | 80% |  |  |
| COc1ncc2cc3cnccc3c([N+](=O)[O-])c2n1 |  |  |  |  |  | 80% | 29% | 20% | 55% | 53% |  | 43% | 8% |  |  |
| CNCc1c[nH]c2cc3cnccc3cc12 |  | 95% | 100% | 87% | 89% | 88% | 83% | 92% | 90% | 98% | 58% | 37% | 74% | 93% |  |
| Clc1c[nH]c2cc3cnccc3cc12 | 61% | 78% | 100% | 92% | 63% | 68% | 82% | 21% | 16% | 82% | 62% | 25% | 39% | 100% |  |
| c1ccc(-c2c[nH]c3cc4cnccc4cc23)cc1 | 53% | 74% | 100% | 66% | 53% | 73% | 77% | 19% | 18% | 88% | 83% | 63% | 44% | 97% | 0.482 µM |
| Cn1cc(I)c2cc3ccncc3cc21 | 46% | 61% | 100% | 81% | 48% | 22% | 60% | 14% | 26% | 72% | 57% | 26% | 22% | 95% | 0.243 µM |

From ChEMBL document CHEMBL5550090, “Synthesis and biological evaluation of 1H-pyrrolo[3,2-g]isoquinolines” (Bioorg Med Chem, 2024)
